Consider seven molecules from ChEMBL document CHEMBL4396963, “An exploration of solvent-front region high affinity moiety leading to novel potent ALK & ROS1 dual inhibitors with mutant-combating effects” (Bioorg Med Chem, 2019).

In assay [1] the test system is HCC78. The assay can be described thus: Antiproliferative activity against human HCC78 cells assessed as reduction in cell viability incubated for 72 hrs by MTT assay. In kind it is functional, cell-based. To be noted: HCC78, 72 h.
Assay [2] deals with Proto-oncogene tyrosine-protein kinase ROS (Homo sapiens, UniProt P08922). Kind of assay: Inhibition of recombinant human N-terminal GST-tagged ROS (1883 to 2347 residues) cytoplasmic domain expressed in baculovirus expression system using IRS1 as substrate incubated for 1 hr by mobility shift assay.
Assay [3] concerns A549. Kind of assay: Antiproliferative activity against human A549 cells harbouring […] mutant assessed as reduction in cell viability incubated for 72 hrs by MTT assay. Format: functional, cell-based. To be noted: A549, 72 h. (In general: Formazan colour is commonly taken as a measure of viable cells.)
Assay [4] relates to A549. The assay can be described thus: cells. The settings on record: Homo sapiens, A549, 72 h.
Assay [5] deals with ALK tyrosine kinase receptor (Homo sapiens, UniProt Q9UM73, L1196M). Kind of assay: Inhibition of recombinant human N-terminal GST-tagged ALK (1058 to 1620 residues) cytoplasmic domain L1196M mutant expressed in baculovirus expression system using srctide as substrate incubated for 1 hr by mobility shift assay.
The target of assay [6] is ALK tyrosine kinase receptor (Homo sapiens, UniProt Q9UM73, G1202R). Kind of assay: Inhibition of recombinant human N-terminal GST-tagged ALK (1058 to 1620 residues) cytoplasmic domain G1202R mutant using srctide as substrate incubated for 1 hr by mobility shift assay.
Assay [7] has as its target Hepatocyte growth factor receptor (Homo sapiens, UniProt P08581). Kind of assay: Inhibition of recombinant human N-terminal GST-tagged MET (956 to 1390 residues) cytoplasmic domain expressed in baculovirus expression system using Srctide as substrate incubated for 1 hr by mobility shift assay.
Assay [8] deals with Epidermal growth factor receptor (Homo sapiens, UniProt P00533).
Description: Inhibition of recombinant human N-terminal GST-tagged EGFR (669 to 1210 residues) cytoplasmic domain expressed in baculovirus expression system using Srctide as substrate incubated for 1 hr by mobility shift assay
The target of assay [9] is ALK tyrosine kinase receptor (Homo sapiens, UniProt Q9UM73). The assay can be described thus: Inhibition of recombinant human N-terminal GST-tagged ALK (1058 to 1620 residues) cytoplasmic domain expressed in baculovirus expression system using srctide as substrate incubated for 1 hr by mobility shift assay.
For assay [10], the system named is KARPAS-299. The assay can be described thus: Antiproliferative activity against human KARPAS299 cells assessed as reduction in cell viability incubated for 72 hrs by MTT assay. In kind it is functional, cell-based. The settings on record: KARPAS-299, 72 h.
Assay [11] concerns NCI-H2228. Kind of assay: Antiproliferative activity against human NCI-H2228 cells assessed as reduction in cell viability incubated for 72 hrs by MTT assay. Format: functional, cell-based. To be noted: NCI-H2228, 72 h.
Assay [12] concerns HT-29. Kind of assay: cells. The settings on record: Homo sapiens, HT-29, 72 h.
Description: Antiproliferative activity against human HT-29 cells assessed as reduction in cell viability incubated for 72 hrs by MTT assay
Assay [13] concerns A549. Kind of assay: Potency index, ratio of IC50 of ceritinib to IC50 of compound for antiproliferative activity against human A549 cells harbouring […] mutant assessed as reduction in cell viability incubated for 72 hrs by MTT assay. Format: functional.
Assay [14] has as its system NCI-H2228. The assay can be described thus: Induction of apoptosis in human NCI-H2228 cells assessed as increase in nuclei damage at 30 nM incubated for 48 hrs by Hoechst 33258 staining based fluorescence microscopy. In kind it is functional, cell-based.
Assay [15] relates to NCI-H2228. The assay can be described thus: Induction of apoptosis in human NCI-H2228 cells assessed as increase in nuclear fragmentation incubated for 48 hrs by AO/EB staining based fluorescence microscopy. Format: functional, cell-based.
Assay [16] concerns NCI-H2228. The assay can be described thus: Induction of apoptosis in human NCI-H2228 cells assessed as increase in nuclear fragmentation at 30 nM incubated for 48 hrs by AO/EB staining based fluorescence microscopy. Format: functional, cell-based.
For assay [17], the system named is NCI-H2228. Kind of assay: Induction of apoptosis in human NCI-H2228 cells assessed as increase in nuclei damage incubated for 48 hrs by Hoechst 33258 staining based fluorescence microscopy. Format: functional, cell-based.
For assay [18], the system named is NCI-H2228. Kind of assay: Induction of apoptosis in human NCI-H2228 cells assessed as increase in cell membrane damage incubated for 48 hrs by Hoechst 33258 staining based fluorescence microscopy. In kind it is functional.
The test system of assay [19] is NCI-H2228. The assay can be described thus: Induction of apoptosis in human NCI-H2228 cells assessed as increase in nuclear shrinkage at 30 nM incubated for 48 hrs by AO/EB staining based fluorescence microscopy. Format: functional, cell-based.
In assay [20] the test system is NCI-H2228. Kind of assay: Induction of apoptosis in human NCI-H2228 cells assessed as increase in nuclear shrinkage incubated for 48 hrs by AO/EB staining based fluorescence microscopy. In kind it is functional, cell-based.
In assay [21] the test system is NCI-H2228. Kind of assay: Induction of apoptosis in human NCI-H2228 cells assessed as increase in cell membrane damage at 30 nM incubated for 48 hrs by Hoechst 33258 staining based fluorescence microscopy. Format: functional.

Molecules are shown by their SMILES. Calls of active or inactive are those of the source. The rule behind the calls is not given here. A value given as a limit tells only on which side of the number the result lay.

ALK tyrosine kinase receptor (Homo sapiens, UniProt Q9UM73), sequence (Q9UM73 whole entry, the tested form may be a part): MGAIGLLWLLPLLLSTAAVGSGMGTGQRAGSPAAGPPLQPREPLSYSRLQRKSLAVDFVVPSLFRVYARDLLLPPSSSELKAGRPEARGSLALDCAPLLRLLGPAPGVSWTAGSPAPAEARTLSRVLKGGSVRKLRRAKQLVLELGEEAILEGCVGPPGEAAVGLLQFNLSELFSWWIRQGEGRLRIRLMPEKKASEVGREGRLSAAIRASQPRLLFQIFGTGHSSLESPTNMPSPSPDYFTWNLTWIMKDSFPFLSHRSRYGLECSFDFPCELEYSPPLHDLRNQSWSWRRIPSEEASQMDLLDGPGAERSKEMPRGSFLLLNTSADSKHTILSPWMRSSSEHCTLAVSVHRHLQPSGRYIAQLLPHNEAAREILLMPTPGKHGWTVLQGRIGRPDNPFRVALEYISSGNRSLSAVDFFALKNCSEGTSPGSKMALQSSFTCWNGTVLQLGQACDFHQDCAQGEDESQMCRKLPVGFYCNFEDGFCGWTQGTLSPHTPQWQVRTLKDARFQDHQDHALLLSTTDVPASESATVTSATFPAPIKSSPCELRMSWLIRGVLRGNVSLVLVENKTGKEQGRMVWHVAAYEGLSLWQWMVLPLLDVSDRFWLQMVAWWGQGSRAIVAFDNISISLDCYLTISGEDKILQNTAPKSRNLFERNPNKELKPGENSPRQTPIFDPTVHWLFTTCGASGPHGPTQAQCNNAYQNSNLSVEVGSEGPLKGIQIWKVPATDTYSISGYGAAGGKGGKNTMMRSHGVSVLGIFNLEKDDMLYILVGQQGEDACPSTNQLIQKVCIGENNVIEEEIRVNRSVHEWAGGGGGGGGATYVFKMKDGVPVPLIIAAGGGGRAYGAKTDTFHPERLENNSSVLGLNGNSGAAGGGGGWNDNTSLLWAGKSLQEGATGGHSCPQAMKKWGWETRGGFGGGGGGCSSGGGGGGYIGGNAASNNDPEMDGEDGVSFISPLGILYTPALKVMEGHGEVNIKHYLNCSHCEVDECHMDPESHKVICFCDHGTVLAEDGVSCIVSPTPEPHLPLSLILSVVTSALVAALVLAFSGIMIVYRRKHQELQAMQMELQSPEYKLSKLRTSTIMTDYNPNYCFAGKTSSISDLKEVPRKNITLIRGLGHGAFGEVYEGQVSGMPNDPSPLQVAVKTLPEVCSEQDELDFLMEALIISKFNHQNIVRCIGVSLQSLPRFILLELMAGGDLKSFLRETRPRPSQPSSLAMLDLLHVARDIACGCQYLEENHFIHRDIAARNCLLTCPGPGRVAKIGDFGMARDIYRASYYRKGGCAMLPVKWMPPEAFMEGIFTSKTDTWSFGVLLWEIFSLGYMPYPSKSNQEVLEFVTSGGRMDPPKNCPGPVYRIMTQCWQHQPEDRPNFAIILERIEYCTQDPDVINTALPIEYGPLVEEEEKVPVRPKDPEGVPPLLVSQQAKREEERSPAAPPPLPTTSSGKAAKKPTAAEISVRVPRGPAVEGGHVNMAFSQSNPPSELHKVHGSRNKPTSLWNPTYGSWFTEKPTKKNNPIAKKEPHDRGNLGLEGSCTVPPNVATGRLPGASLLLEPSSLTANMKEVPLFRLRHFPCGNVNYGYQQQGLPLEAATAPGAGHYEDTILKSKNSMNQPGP
Epidermal growth factor receptor, sequence (P00533 whole entry, the tested form may be a part): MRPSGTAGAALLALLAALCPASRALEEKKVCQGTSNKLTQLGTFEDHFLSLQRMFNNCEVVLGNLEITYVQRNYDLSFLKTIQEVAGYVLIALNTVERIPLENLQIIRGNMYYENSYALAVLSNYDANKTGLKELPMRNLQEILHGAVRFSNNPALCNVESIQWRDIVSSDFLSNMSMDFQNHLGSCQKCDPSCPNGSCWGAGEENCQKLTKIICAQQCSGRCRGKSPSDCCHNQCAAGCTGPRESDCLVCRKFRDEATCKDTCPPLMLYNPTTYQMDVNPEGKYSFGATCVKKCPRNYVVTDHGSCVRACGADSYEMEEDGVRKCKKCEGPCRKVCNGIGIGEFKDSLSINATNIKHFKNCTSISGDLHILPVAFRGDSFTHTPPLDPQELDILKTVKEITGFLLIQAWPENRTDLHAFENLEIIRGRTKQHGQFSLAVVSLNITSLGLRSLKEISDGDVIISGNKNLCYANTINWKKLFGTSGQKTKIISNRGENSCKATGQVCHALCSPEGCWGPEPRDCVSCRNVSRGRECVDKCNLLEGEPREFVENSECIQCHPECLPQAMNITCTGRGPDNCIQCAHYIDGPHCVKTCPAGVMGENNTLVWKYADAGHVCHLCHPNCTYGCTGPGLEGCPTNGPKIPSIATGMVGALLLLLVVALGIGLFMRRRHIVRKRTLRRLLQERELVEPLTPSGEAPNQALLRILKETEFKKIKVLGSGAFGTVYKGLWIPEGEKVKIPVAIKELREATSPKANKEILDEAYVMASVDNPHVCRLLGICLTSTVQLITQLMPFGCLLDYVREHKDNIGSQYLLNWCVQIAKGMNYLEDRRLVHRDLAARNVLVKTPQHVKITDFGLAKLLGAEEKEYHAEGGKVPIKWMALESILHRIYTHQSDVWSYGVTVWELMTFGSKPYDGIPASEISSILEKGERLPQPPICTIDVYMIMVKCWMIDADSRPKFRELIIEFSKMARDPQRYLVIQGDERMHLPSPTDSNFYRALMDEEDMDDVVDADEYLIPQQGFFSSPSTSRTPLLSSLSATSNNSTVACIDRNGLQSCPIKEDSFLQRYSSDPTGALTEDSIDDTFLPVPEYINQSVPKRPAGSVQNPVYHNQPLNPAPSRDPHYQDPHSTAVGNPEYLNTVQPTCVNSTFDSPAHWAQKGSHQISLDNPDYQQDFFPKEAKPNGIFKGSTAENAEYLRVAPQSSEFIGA
Proto-oncogene tyrosine-protein kinase ROS, sequence (P08922 whole entry, the tested form may be a part): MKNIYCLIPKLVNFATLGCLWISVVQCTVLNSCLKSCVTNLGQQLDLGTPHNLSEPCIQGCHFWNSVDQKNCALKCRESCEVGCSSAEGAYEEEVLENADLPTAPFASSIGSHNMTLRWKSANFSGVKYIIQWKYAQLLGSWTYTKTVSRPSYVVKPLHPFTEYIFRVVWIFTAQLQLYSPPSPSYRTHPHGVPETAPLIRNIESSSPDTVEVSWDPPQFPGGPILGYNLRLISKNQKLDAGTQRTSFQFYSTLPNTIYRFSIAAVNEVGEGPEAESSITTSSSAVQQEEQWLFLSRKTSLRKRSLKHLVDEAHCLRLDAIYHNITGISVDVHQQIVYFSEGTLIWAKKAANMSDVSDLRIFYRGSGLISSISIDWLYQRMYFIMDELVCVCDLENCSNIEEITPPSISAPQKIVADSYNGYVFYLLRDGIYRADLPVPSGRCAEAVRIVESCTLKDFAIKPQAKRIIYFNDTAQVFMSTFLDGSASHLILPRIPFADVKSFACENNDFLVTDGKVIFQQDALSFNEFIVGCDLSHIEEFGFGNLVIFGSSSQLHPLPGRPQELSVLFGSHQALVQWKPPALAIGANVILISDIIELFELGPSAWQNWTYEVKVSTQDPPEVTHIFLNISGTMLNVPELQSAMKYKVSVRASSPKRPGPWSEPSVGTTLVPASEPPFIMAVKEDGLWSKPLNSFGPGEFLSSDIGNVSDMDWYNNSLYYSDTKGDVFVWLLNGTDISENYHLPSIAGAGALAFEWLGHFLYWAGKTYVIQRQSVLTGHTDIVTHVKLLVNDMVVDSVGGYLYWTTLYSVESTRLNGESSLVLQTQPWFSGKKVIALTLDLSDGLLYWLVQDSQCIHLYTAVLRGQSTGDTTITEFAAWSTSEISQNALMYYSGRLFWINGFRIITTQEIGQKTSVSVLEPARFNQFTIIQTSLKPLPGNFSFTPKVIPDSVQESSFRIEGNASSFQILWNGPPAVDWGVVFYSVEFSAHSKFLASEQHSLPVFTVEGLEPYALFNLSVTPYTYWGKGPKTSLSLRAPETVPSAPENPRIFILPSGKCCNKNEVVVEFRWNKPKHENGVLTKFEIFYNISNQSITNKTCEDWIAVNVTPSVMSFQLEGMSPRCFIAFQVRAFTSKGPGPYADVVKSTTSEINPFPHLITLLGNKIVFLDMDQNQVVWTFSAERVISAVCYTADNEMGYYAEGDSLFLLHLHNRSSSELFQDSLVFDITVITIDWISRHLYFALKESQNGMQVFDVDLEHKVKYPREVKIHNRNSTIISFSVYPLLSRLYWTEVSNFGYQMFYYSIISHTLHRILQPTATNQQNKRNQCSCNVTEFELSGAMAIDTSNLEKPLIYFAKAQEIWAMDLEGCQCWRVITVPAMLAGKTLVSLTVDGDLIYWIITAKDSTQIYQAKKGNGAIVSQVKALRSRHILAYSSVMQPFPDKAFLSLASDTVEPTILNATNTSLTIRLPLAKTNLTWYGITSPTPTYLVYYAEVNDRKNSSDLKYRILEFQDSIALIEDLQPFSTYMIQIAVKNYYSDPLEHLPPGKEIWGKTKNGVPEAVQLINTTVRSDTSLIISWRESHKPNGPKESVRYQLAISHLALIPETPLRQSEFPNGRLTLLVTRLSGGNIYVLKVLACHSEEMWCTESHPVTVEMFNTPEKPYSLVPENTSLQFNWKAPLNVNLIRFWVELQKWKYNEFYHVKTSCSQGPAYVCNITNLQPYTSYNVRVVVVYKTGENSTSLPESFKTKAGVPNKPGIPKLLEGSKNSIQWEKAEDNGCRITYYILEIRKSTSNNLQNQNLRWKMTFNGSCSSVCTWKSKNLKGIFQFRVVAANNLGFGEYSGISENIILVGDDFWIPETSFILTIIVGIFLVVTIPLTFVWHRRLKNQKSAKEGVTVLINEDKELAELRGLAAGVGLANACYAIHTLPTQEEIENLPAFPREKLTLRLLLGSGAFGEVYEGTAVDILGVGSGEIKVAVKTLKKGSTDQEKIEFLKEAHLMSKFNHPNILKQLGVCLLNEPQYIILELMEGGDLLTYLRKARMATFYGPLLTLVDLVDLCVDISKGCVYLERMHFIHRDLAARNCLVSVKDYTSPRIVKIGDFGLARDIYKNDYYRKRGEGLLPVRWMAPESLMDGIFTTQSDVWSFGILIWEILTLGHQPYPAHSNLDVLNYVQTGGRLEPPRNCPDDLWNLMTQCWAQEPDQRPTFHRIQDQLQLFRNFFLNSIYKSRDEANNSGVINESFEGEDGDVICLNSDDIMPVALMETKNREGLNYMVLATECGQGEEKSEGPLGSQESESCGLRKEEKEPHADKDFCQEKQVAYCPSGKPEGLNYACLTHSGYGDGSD

One may read the IC50 as the midpoint of a concentration-inhibition curve. Regarding `COc1cc(N2CCCNC2=O)ccc1Nc1ncc(Cl)c(Nc2ccccc2NC(C)=O)n1`, the IC50 was 89 nM in [1]; 5.3 nM in [2]; 170 nM in assay [3]; over 10000 nM in [4]; 5.1 nM in [5]; 10.2 nM in [6]. Moreover, the half-inhibitory concentration (IC50) was over 1000 nM in assay [7]; over 1000 nM in assay [8]; 4.7 nM in assay [9]; 100 nM in assay [10]; 220 nM in assay [11]; 6070 nM in [12].
For `COc1cc(NC(=O)C2CC2)ccc1Nc1ncc(Cl)c(Nc2ccccc2NC(C)=O)n1`, the IC50 in [1] is 230 nM; in assay [2] it was 3.2 nM; in [3], 930 nM; in [4], over 10000 nM; in assay [5], 6.6 nM; in [6], 11.5 nM. Besides, the IC50 is over 1000 nM in assay [7]; 617 nM in [8]; 4.1 nM in assay [9]; 1060 nM in assay [10]; 490 nM in assay [11]; 2960 nM in assay [12].
As to `COc1cc(NC(=O)N2CCN(CCO)CC2)ccc1Nc1ncc(Cl)c(Nc2ccccc2NC(C)=O)n1`, the half-inhibitory concentration (IC50) in assay [1] was 130 nM; in assay [2], 1.7 nM; in [3] it was 270 nM; in [4] it was over 10000 nM; in [5], 2.7 nM; in assay [6] it was 6.3 nM. The IC50 was over 1000 nM in assay [7]; over 1000 nM in assay [8]; 6.3 nM in assay [9]; 93 nM in assay [10]; 260 nM in assay [11]; 4030 nM in assay [12].
As to `COc1cc(NC(=O)N2CCCC2)ccc1Nc1ncc(Cl)c(Nc2ccccc2NC(C)=O)n1`, the IC50 was 870 nM in assay [1]; 0.97 nM in assay [2]; 360 nM in assay [3]; over 10000 nM in assay [4]; 3.7 nM in assay [5]; 7.1 nM in assay [6]. In addition, the IC50 was over 1000 nM in [7]; over 1000 nM in assay [8]; 5.1 nM in [9]; 160 nM in assay [10]; 79 nM in assay [11]; 1270 nM in assay [12].
As to `COc1cc(NC(=O)N2CCOCC2)ccc1Nc1ncc(Cl)c(Nc2ccccc2NC(C)=O)n1`, the IC50 in [1] is 41 nM; in assay [2], 0.73 nM; in assay [3], 30 nM; in assay [4] it was 1610 nM; in [5], 0.91 nM; in assay [6], 4.3 nM. Further, the IC50 in assay [7] was over 1000 nM; in [8], over 1000 nM; in assay [9], 2.1 nM; in assay [10], 27 nM; in assay [11] it was 56 nM; in assay [12], over 10000 nM. Also, the “Ratio IC50” value in assay [13] was determined as 16.5. In addition, the outcome in assay [14], in [16], in [19] and in assay [21] was Active. Further, the Activity result in assay [15], in assay [17], in assay [18] and in assay [20] was “Dose-dependent effect” in each case.
Consider `COc1cc(N2CCCC2=O)ccc1Nc1ncc(Cl)c(Nc2ccccc2NC(C)=O)n1`, for which the IC50 in [1] was 97 nM; in assay [2] it was 4.4 nM; in assay [3] it was 410 nM; in [4], 4130 nM; in assay [5], 2.9 nM; in assay [6], 15.7 nM. Besides, the IC50 in [7] is 532 nM; in [8], over 1000 nM; in assay [9] it was 6.2 nM; in assay [10], 220 nM; in assay [11], 220 nM; in [12] it was 1530 nM.
As for `COc1cc(NC(=O)NC2CCC(=O)CC2)ccc1Nc1ncc(Cl)c(Nc2ccccc2NC(C)=O)n1`, the IC50 in [1] came out at 67 nM; in assay [2], 3.7 nM; in assay [3], 190 nM; in [4] it was 1720 nM; in assay [5], 3.9 nM; in assay [6] it was 9.3 nM. Besides, the IC50 is 325 nM in assay [7]; over 1000 nM in [8]; 2.5 nM in [9]; 77 nM in [10]; 550 nM in assay [11]; over 10000 nM in assay [12].
